#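 Exposure lasted 48 hours, with cells grown in 96-well plates and compounds tested at five concentrations. GI50: concentration for 50% inhibition of growth. Definition used: TGI = concentration required for complete inhibition of growth.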
# Key:
# Test in all cases: DTP human tumour cell line panel, 48 h
# A498 renal = system: A498 renal
# EKVX NSCLC = system: EKVX NSCLC
# SF-295 CNS = system: SF-295 CNS
# M14 melanoma = system: M14 melanoma
# NCI-H226 lung = system: NCI-H226 lung
# NCI/ADR-RES ovarian = system: NCI/ADR-RES ovarian
# HCT-15 colon = system: HCT-15 colon
# HOP-92 NSCLC = system: HOP-92 NSCLC
# MDA-MB-435 = system: MDA-MB-435
# ACHN renal = system: ACHN renal
# U251 CNS = system: U251 CNS
# SNB-75 CNS = system: SNB-75 CNS
# SN12C renal = system: SN12C renal
# OVCAR-4 ovarian = system: OVCAR-4 ovarian
# MCF7 breast = system: MCF7 breast
# PC-3 prostate = system: PC-3 prostate
# T-47D breast = system: T-47D breast
# RXF 393 renal = system: RXF 393 renal
# A549 NSCLC = system: A549 NSCLC
# SF-539 CNS = system: SF-539 CNS
# UACC-257 melanoma = system: UACC-257 melanoma
# HCT-116 colon = system: HCT-116 colon
# SK-MEL-2 melanoma = system: SK-MEL-2 melanoma
# CCRF-CEM leukemia = system: CCRF-CEM leukemia
# KM12 colon = system: KM12 colon
# BT-549 breast = system: BT-549 breast
# SK-OV-3 ovarian = system: SK-OV-3 ovarian
# MALME-3M melanoma = system: MALME-3M melanoma
# SF-268 CNS = system: SF-268 CNS
structure (smiles),measurement,setting,value
COc1ccc(OC(=O)O[C@H]2[C@H](O[C@H]3[C@@H](O)COC(O[C@H]4C[C@H]5[C@@H]6CC=C7C[C@@H](O)CC[C@]7(C)[C@H]6CC[C@]5(C)[C@H]4[C@H](C)C(=O)CCC(C)C)[C@@H]3OC(C)=O)OC[C@@H](O)[C@@H]2O)cc1 (some centres not stated),GI50,A498 renal,11.6 nM
same,TGI,A498 renal,55.9 nM
same,GI50,EKVX NSCLC,1640 nM
same,TGI,EKVX NSCLC,19600 nM
same,GI50,SF-295 CNS,< 10 nM
same,TGI,SF-295 CNS,19.3 nM
same,GI50,M14 melanoma,40 nM
same,TGI,M14 melanoma,262 nM
same,GI50,NCI-H226 lung,580 nM
same,TGI,NCI-H226 lung,18700 nM
same,GI50,NCI/ADR-RES ovarian,13000 nM
same,TGI,NCI/ADR-RES ovarian,> 100000 nM
same,GI50,HCT-15 colon,1290 nM
same,TGI,HCT-15 colon,11400 nM
same,GI50,HOP-92 NSCLC,13 nM
same,TGI,HOP-92 NSCLC,2720 nM
same,GI50,MDA-MB-435,69.5 nM
same,TGI,MDA-MB-435,759 nM
same,GI50,ACHN renal,496 nM
same,TGI,ACHN renal,18000 nM
same,GI50,U251 CNS,12.1 nM
same,TGI,U251 CNS,16200 nM
same,GI50,SNB-75 CNS,< 10 nM
same,TGI,SNB-75 CNS,10900 nM
same,GI50,SN12C renal,11200 nM
same,TGI,SN12C renal,23800 nM
same,GI50,OVCAR-4 ovarian,1120 nM
same,TGI,OVCAR-4 ovarian,20300 nM
same,GI50,MCF7 breast,78.2 nM
same,TGI,MCF7 breast,12800 nM
same,GI50,PC-3 prostate,10.3 nM
same,TGI,PC-3 prostate,10100 nM
same,GI50,T-47D breast,50.5 nM
same,TGI,T-47D breast,19800 nM
same,GI50,RXF 393 renal,< 10 nM
same,GI50,A549 NSCLC,145 nM
same,TGI,A549 NSCLC,21900 nM
same,GI50,SF-539 CNS,< 10 nM
same,TGI,SF-539 CNS,76.4 nM
same,GI50,UACC-257 melanoma,172 nM
same,TGI,UACC-257 melanoma,520 nM
same,GI50,HCT-116 colon,62.1 nM
same,TGI,HCT-116 colon,14100 nM
same,GI50,SK-MEL-2 melanoma,19.9 nM
same,TGI,SK-MEL-2 melanoma,645 nM
same,GI50,CCRF-CEM leukemia,< 10 nM
same,TGI,CCRF-CEM leukemia,145 nM
same,GI50,KM12 colon,682 nM
same,TGI,KM12 colon,19700 nM
same,GI50,BT-549 breast,18.5 nM
same,TGI,BT-549 breast,15200 nM
same,GI50,SK-OV-3 ovarian,329 nM
same,TGI,SK-OV-3 ovarian,15300 nM
same,GI50,MALME-3M melanoma,122 nM
same,TGI,MALME-3M melanoma,3840 nM
same,GI50,SF-268 CNS,42 nM
same,TGI,SF-268 CNS,6990 nM

# From PubChem BioAssay (NCI)
